# Reference: US8772277B2, “Nitrogen-containing heterocyclic compound” (Takeda Pharmaceutical Company Limited, priority 2011, dated 2014)
# Where a name gives a salt, the structure may show the parent alone.
# Key:
# [1] = target: T1, fusion protein containing GAL4-DNA-binding domain and ERR full-length (Homo sapiens, UniProt P11474); experiment: Reporter assay system using 293T cells (GAL4-ERR luciferase, inverse agonist activity); format: cell-based; conditions: compound final concentration 3 μM, no compound = 0%, 10 μM XCT-790 = 100%; for inhibition at 3 µM: HEK-293T, read-out: inhibition rate (%) at 3 μM
# T1 construct: expressed in transfected cells; host or cells: 293T cells
# T1 sequence (P11474 1-423): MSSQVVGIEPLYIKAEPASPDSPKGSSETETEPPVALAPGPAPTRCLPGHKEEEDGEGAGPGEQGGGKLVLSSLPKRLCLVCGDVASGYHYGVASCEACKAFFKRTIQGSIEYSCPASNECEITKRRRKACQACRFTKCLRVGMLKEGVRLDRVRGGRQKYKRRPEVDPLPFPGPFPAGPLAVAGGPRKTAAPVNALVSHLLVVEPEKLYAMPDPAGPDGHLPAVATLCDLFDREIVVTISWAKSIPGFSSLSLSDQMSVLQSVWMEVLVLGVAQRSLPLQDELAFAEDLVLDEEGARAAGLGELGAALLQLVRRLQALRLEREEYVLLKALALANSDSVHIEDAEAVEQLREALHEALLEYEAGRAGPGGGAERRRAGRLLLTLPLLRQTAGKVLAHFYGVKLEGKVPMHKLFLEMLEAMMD
# Procedure: Experimental Example 2 Compound Evaluation in Reporter Assay System Using 293T Cells
# 293T cells derived from human kidney were seeded in a 150 cm^2 flask by 6,000,000 cells, and cultured in a medium (DMEM medium containing 10% inactivated Fetal Bovine Serum sterile filtered (FBS), […] Gentamicin, 10 mM HEPES buffer (pH 7.4)) at 37° C. in the presence of 5% CO2 for 1 day.
# Then, vector DNA having a gene encoding a fusion protein, containing GAL4-DNA-binding domain and ERR full-length and a vector DNA wherein luciferase gene is fused at the downstream of GAL4-binding-sequence were cotransfected by a lipofection method, and the cells were cultured at 37° C. in the presence of 5% CO2 for 1 day. The cells were recovered, sown in a 384 well plate by 15,000 cells, and cultured at 37° C. in the presence of 5% CO2 for 3 hrs. Furthermore, 50 μM N-[5-(trifluoromethyl)-1,3,4-thiadiazol-2-yl]-2-cyano-3-[3-methoxy-4-[2,4-di(trifluoromethyl)benzyloxy]phenyl]propenamide (XCT-790) (final concentration 10 μM) or 15 μM compound (final concentration 3 μM) was added, and the cells were cultured at 37° C. in the presence of 5% CO2 for 1 day. The luciferase activity was measured by using multiplate reader Envision (Perkin Elmer Inc.). The inverse agonist activity of the compound was calculated in percentage with the luciferase activity inhibited by no addition of compound as 0%, and with addition of final concentration 10 μM of XCT-790 as 100%.
# [2] = target: T2, GST-ERR-α ligand-binding domain (Homo sapiens, UniProt P11474); experiment: HTRF assay system using ERR-α ligand-binding domain (inverse agonist activity, biotinylated SRC-1 (676-700) peptide); format: biochemical; conditions: compound final concentration 30 μM, 665/620 ratio, no compound = 0%, 10 μM XCT-790 = 100%; for inhibition at 30 µM: read-out: inhibition rate (%) at 30 μM
# T2 sequence (P11474 193-421 limits assumed): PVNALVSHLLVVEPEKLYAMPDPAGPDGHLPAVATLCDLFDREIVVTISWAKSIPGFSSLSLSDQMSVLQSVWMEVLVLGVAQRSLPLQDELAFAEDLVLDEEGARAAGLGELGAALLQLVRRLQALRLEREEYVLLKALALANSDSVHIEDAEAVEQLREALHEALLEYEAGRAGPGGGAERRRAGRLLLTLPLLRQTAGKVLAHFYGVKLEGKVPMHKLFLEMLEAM
# Procedure: Experimental Example 1 Compound Evaluation in HTRF Assay System Using ERR-α Ligand-Binding Domain
# An assay buffer (25 mM HEPES, 100 mM NaCl, 1 mM DTT, 0.1% BSA) containing 5 nM GST-ERR-α ligand-binding domain (final concentration 1.25 nM) was added to a 384 well plate, then 40 μM N-[5-(trifluoromethyl)-1,3,4-thiadiazol-2-yl]-2-cyano-3-[3-methoxy-4-[2,4-di(trifluoromethyl)benzyloxy]phenyl]propenamide (XCT-790) (final concentration 10 μM), or 120 μM compound (final concentration 30 μM) was added. Furthermore, an assay buffer containing XL665 conjugated Streptavidin, Eu^3+ criptate conjugated GST antibody and 200 nM biotinylated SRC-1 (676-700) (final concentration 100 nM) was added, and the mixture was reacted at room temperature for 2 hr. Using Multiplate reader Envision (Perkin Elmer Inc.), after excitation at 320 nm, fluorescence values at 620 nm and 665 nm were measured. The inverse agonist activity of the compound was calculated in percentage with the 665/620 ratio value inhibited by no addition of compound as 0%, and with addition of final concentration 10 μM of XCT-790 as 100%.
# MDA-MB-231-luc cells = experiment: Antitumor test using MDA-MB-231-luc cells (subcutaneous transplant); format: in vivo, Balb/c nu/nu mice; conditions: change in tumor volume, vehicle group = 100%
# Procedure: Experimental Example 3 Antitumor Test using MDA-MB-231-luc Cells
# 6-Week-old Balb/c nu/nu mice were transplanted subcutaneously with 5×10^6 cells/100 μL, and the mice were grouped according to the body weight and tumor volume after 1 to 2 weeks. Vehicle (0.5% MC) or a compound was administered orally to mice (6 mice per group). The administration was twice per day and performed continuously during the dosing period. Setting the change in tumor volume of the vehicle-treated group as 100%, the change rate in tumor volume of the compound-treated group (□/C %) was calculated.
# [3] = 50 mg/kg orally twice per day, dosing period 14 days
Structure (SMILES),inhibition at 3 µM [1],inhibition at 30 µM [2],further results
"C#CCNC1=NC(=O)S/C1=C\C1CCN(Cc2ccc(C(F)(F)F)cc2C(F)(F)F)CC1 [Example 7, (5Z)-5-({1-[2,4-bis(trifluoromethyl)benzyl]piperidin-4-yl}methylidene)-4-(prop-2-yn-1-ylamino)-1,3-thiazol-2(5H)-one]",–,–,inhibition rate (%) at 3 μM [1]: 87%; inhibition rate (%) at 30 μM [2]: 100%; T/C (%) (MDA-MB-231-luc cells; [3]): 24%
"C#CCNC1=NC(=O)S/C1=C\C1CCN(Cc2ccc(C(F)(F)F)cc2C(F)(F)F)CC1 [Example 10, (5Z)-5-({1-[2,4-bis(trifluoromethyl)benzyl]piperidin-4-yl}methylidene)-4-(prop-2-yn-1-ylamino)-1,3-thiazol-2(5H)-one fumarate]",–,–,"inhibition rate (%) at 3 μM ([1]; fumarate): 93%; inhibition rate (%) at 30 μM ([2]; fumarate): 102%; T/C (%) (MDA-MB-231-luc cells; 60 mg/kg orally twice per day, dosing period 15 days): 15%"
"C#CCNC1=NC(=O)S/C1=C\C1CCN(Cc2ccc(C(F)(F)F)cc2C(F)(F)F)C1 (stereo not drawn) [Example 69, (5Z)-5-({1-[2,4-bis(trifluoromethyl)benzyl]pyrrolidin-3-yl}methylidene)-4-(prop-2-yn-1-ylamino)-1,3-thiazol-2(5H)-one maleate]",87%,67%,–
"CC(C)(CO)CNC1=NC(=O)S/C1=C\C1CCN(Cc2ccc(C(F)(F)F)cc2C(F)(F)F)CC1 [Example 77, (5Z)-5-({1-[2,4-bis(trifluoromethyl)benzyl]piperidin-4-yl}methylidene)-4-[(3-hydroxy-2,2-dimethylpropyl)amino]-1,3-thiazol-2(5H)-one]",82%,109%,–
"CC(C)(CO)CNC1=NC(=O)S/C1=C\C1CCN(Cc2ccc(C(F)(F)F)cc2C(F)(F)F)CC1 [Example 78, (5Z)-5-({1-[2,4-bis(trifluoromethyl)benzyl]piperidin-4-yl}methylidene)-4-[(3-hydroxy-2,2-dimethylpropyl)amino]-1,3-thiazol-2(5H)-one fumarate]",–,–,T/C (%) (MDA-MB-231-luc cells; [3]): 11%
"CNC1=NC(=O)N(C)/C1=C\C1CCN(Cc2ccc(C(F)(F)F)cc2C(F)(F)F)CC1 [Example 80, (5Z)-5-({1-[2,4-bis(trifluoromethyl)benzyl]piperidin-4-yl}methylidene)-1-methyl-4-(methylamino)-1,5-dihydro-2H-imidazol-2-one]",86%,105%,–
"CN(C)C(=O)[C@H](CO)NC1=NC(=O)S/C1=C\C1CCN(Cc2ccc(C(F)(F)F)cc2C(F)(F)F)CC1 [Example 132, N^2-[(5Z)-5-({1-[2,4-bis(trifluoromethyl)benzyl]piperidin-4-yl}methylidene)-2-oxo-2,5-dihydro-1,3-thiazol-4-yl]-N,N-dimethyl-L-serinamide]",78%,102%,–
"CN(C)C(=O)CCNC1=NC(=O)S/C1=C\C1CCN(Cc2ccc(C(F)(F)F)cc2C(F)(F)F)CC1 [Example 140, N^3-[(5Z)-5-({1-[2,4-bis(trifluoromethyl)benzyl]piperidin-4-yl}methylidene)-2-oxo-2,5-dihydro-1,3-thiazol-4-yl]-N,N-dimethyl-β-alaninamide]",90%,100%,–

# Continued, in another order:
inhibition at 3 µM [1],inhibition at 30 µM [2],Structure (SMILES),further results
84%,101%,"CCNC1=NC(=O)S/C1=C\C1CCN(Cc2ccc(C(F)(F)F)cc2C(F)(F)F)CC1 [Example 199, (5Z)-5-({1-[2,4-bis(trifluoromethyl)benzyl]piperidin-4-yl}methylidene)-4-(ethylamino)-1,3-thiazol-2(5H)-one]",–
88%,101%,"CCCNC1=NC(=O)S/C1=C\C1CCN(Cc2ccc(C(F)(F)F)cc2C(F)(F)F)CC1 [Example 200, (5Z)-5-({1-[2,4-bis(trifluoromethyl)benzyl]piperidin-4-yl}methylidene)-4-(propylamino)-1,3-thiazol-2(5H)-one]",–
